Data set [1] relates to mice. Description: Elevated Plus maze (anxiety). Type of data set: in vivo. The text has this: A Plus maze was constructed of black plexiglass consisting of two opposite-facing open arms (30×5 cm, L×W) and two opposite facing closed arms (30×5×15 cm, L×W×H). The walls of the closed arms were clear plexiglass and the four arms were connected by a central area 5×5 cm. The entire Plus maze was mounted on a base 38 cm above the floor. Testing consisted of placing the subject at one end of one of the open arms. The time the subject took to leave the start position (the first 10 cm of the open arm) was recorded. The time it took for the subject to enter halfway into one of the closed arms was also recorded. When the subject arrived at the half-way point in the closed arm, the three-minute test session began. During the three-minute test session, the number of times the subject entered the open arms was recorded. An entry was defined as placing at least two paws onto the platform of the open arm.

Data set [2] relates to BDNF mRNA. Description: Northern blot of neurotrophin mRNA from astrocytes: BDNF. The arrangement: key: The conditions which produced a detectable amount of each of the neurotrophin mRNAs are indicated by a “+”; a “++” indicating that at least twice the detectable amount was present; Those blots which were negative are indicated by a “−”. The settings on record: 24 hours. Type of data set: cell-based, NIH Swiss mice. The protocol: (§1) Induction of neurotrophin mRNA was determined by northern blot analysis of astrocytes cultured with AIT-082, NGF, or both. The cells were harvested and RNA extracted at 24 hours after treatment.
(§2) More particularly, astrocytes from the cerebral cortex of NIH Swiss mice (Harlan) were isolated. Briefly, newborn pups (0-24 hours) were decapitated. Their brains were removed under aseptic conditions and were placed in modified Dulbecco's medium (DMEM) containing 20% heat-inactivated horse serum (Hyclone) (“complete medium”). The neopallium was then dissected from each cerebral hemisphere and minced into 1 mm cubes.
(§3) The astrocytes were then isolated by mechanical dissociation. The cubes were vortexed at maximum speed for one minute. The cell suspension was then passed first through 75 mm Nitex then through 10 mm Nitex. The resulting cell suspension was diluted in complete medium to a final concentration of one brain per 10 ml of complete medium. Ten milliliters of the diluted cell suspension was added to each 100 mm Falcon tissue culture plate (Fisher). After 3 days the medium was replaced with 10 ml fresh complete medium and subsequently was replaced twice weekly with DMEM containing 10% heat inactivated horse serum (“growth medium”). After two weeks in culture the astrocytes formed a confluent monolayer.
(§4) For RNA extraction, astrocytes were trypsinized. The astrocytes were then replated onto 100 mm PORN coated plates at a cell density of 10^6 cells per plate (10 ml growth medium). […]
(§5) The blots were probed with ^32P-labeled cDNA (NGF, NT-3 and BDNF probes) or oligonucleotide probe (FGF-2) by hybridization in Piperazine-N,N′-bis-(2-ethanesulfonic acid) (PIPES) buffer (50 mM PIPES, pH 6.8; 50 mM NaH2PO4; 0.1 M NaCl; 5% SDS and 1 mM EDTA) overnight at 50° C. […] Various concentrations ([…] of total RNA), as determined by spectrophotometry, of each sample were blotted and probed so that quantification could be done after insuring a linear film response. Quantification was performed using MCID Image Analysis (St. Catherine's, Ontario, Canada). […]

Data set [3] in a line: Brain tissue levels of AIT-082 (HPLC). Type of data set: in vivo, C57BL/6 mice. The conditions noted are these: for Level of AIT-082 in brain tissue: 30 mg/kg i.p., 30 minutes after administration, 30 mg/kg.
In data set [4] the test system is NT-3 mRNA. Description: Northern blot of neurotrophin mRNA from astrocytes: NT-3. Type of data set: cell-based, NIH Swiss mice. Also on record: key: The conditions which produced a detectable amount of each of the neurotrophin mRNAs are indicated by a “+”; a “++” indicating that at least twice the detectable amount was present; Those blots which were negative are indicated by a “−”. The settings on record: 24 hours. The protocol:
as §1, §2, §3, §4, §5

In data set [5] the test system is bFGF. Description: Summary of effects on growth factor mRNA and protein (Table R): bFGF. The arrangement: key: ± = mRNA; + = protein; nt = not tested. The text has this: The constellation of effects of AIT-082 on production of mRNA encoding growth factors and on production of growth factor proteins is shown in Table R. The results summarized in […] show both transcriptional and translational effects on growth factors that are in the categories of neurotrophins, pleiotrophins, members of the S100 family of EF hand calcium binding proteins, and members of the TGFβ superfamily. As indicated, effects have been shown at both the mRNA (transcriptional) and protein (translational) levels.

For data set [6], the system named is mice. Nature of the data set: Prophylaxis of age-induced memory deficit (win-shift, monthly). The format is in vivo. The settings on record: 30 mg/kg/day in drinking water from 14 months of age. The protocol:
It has been observed that age-induced memory deficits typically begin to manifest themselves in mice between 14 and 16 months of age. Therefore, the treatment of mice was begun at 14 months of age with AIT-082 (30 mg/kg/day) in their drinking water. The animals were measured monthly for their memory using the win-shift foraging tests previously described.

Results on one compound are retold here after patent publication US6338963B1, “Use of carbon monoxide dependent guanylyl cyclase modifiers to stimulate neuritogenesis” (NeoTherapeutics, Inc., priority 1994, dated 2002).

SMILES strings stand for the structures. Several values for one entry are separate records, joined by “and”; a condition that tells them apart may be missing. Equal entries are not always repeated.

As for `O=C(CCn1cnc2c(=O)[nH]cnc21)Nc1ccc(C(=O)O)cc1` [AIT-082, N-4-carboxyphenyl-3-(6-oxohydropurin-9-yl)propanamide], the results for the “anxiogenic effect in Plus maze” value in data set [1] (0.005 to 0.5 mg/kg), in data set [1] (30 mg/kg) and in data set [1] (60 mg/kg) were “not observed”, “slight anxiogenic effect” and “not observed”, respectively. Further, the “BDNF mRNA” value in data set [2] (AIT-082 100 mM) and in data set [2] (AIT-082 + NGF (40 ng/ml)) was “+” each time. In addition, the “level detected in brain” value in data set [3] (30 minutes after oral administration) is reported as no more than 3.3 ng/mg brain tissue. Moreover, the “Level of AIT-082 in brain tissue” value in data set [3] (Cortex) is 2.8 ng/mg brain tissue and 3.4 ng/mg brain tissue; in data set [3] (Remainder of brain), 2.3 ng/mg brain tissue and 3.3 ng/mg brain tissue. For the same compound, in data set [3] (brain tissue after 30 minutes), the “passage of the blood-brain barrier” value is on record as “crosses the blood-brain barrier without degradation”. Also, the “NT-3 mRNA” value in data set [4] (AIT-082 100 mM) is on record as “++”; in data set [4] (AIT-082 + NGF (40 ng/ml)), “+”. Also, the “bFGF, effect on mRNA/protein production” value in data set [5] (Aged Brain) and in data set [5] (Lesioned Brain) was “±” in each case. Besides, in data set [6], the “onset and severity of age-induced memory deficits” value was “delayed the onset and severity of memory deficits”.
